Like-named read-outs stand apart in the source and are kept apart here.
Assays:
[1] = rcm bond, 16-membered ring, Hoveyda-Grubbs II
[2] = biological target: T1, Mcl-1/Bim interaction, recombinant human Mcl-1 (171-327) (Homo sapiens, UniProt Q07820); assay: Cell free Mcl-1: Bim Affinity Assay (Mcl-1 HTRF); assay type: binding
T1 construct: made in house
In short: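 Displacement of biotinylated Bim 51-76 peptide is followed by TR-FRET. Incubation runs overnight. Duplicate points are fitted with a four-parameter sigmoid to yield IC50.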

[3] = system: OPM-2 human multiple myeloma cell line; assay: Cell Viability Assay (OPM-2 10 FBS); assay type: cell-based; details: OPM-2 cells, CellTiter-Glo
In short: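 OPM-2 myeloma cells, 3000/well in medium with 10% FBS, exposed to serially diluted compounds for 16 h at 37° C./5% CO2. Viability read by CellTiter-Glo luminescence; IC50 from 4-parameter logistic fit.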

[4] = TR-FRET, 0.1 nM Mcl-1 (171-327), 0.05 nM biotin-Bim (51-76)
[5] = Homo sapiens, OPM-2, 16 h, 16 h incubation

T1 sequence (Q07820 171-327): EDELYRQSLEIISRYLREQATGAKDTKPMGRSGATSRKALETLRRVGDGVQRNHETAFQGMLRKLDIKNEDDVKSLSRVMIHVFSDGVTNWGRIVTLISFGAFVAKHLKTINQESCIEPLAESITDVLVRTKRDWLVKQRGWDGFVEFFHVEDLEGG

Row | Compound | IC50 [2, 4] | IC50 [3, 5] | other results
1 | O=C1NS(=O)(=O)NCCC=C[C@H](O)[C@@H]2CC[C@H]2CN2C[C@@]3(CCCc4cc(Cl)ccc43)COc3ccc1cc32 |  |  | ring closure, isolated yield ([1]; from C=CCCNS(=O)(=O)NC(=O)c1ccc2c(c1)N(C[C@@H]1CC[C@H]1[C@@H](O)C=C)C[C@@]1(CCCc3cc(Cl)ccc31)CO2, 1,1-dichloroethane, 1.5 mM, 50.0 °C, 24.0 h): 61%
2 | O=C1NS(=O)(=O)[C@@H]2C[C@H]2C/C=C/[C@H](O)[C@@H]2CC[C@H]2CN2C[C@@]3(CCCc4cc(Cl)ccc43)COc3ccc1cc32 |  |  | ring closure, isolated yield ([1]; from C=CCC1C[C@H]1S(=O)(=O)NC(=O)c1ccc2c(c1)N(C[C@@H]1CC[C@H]1[C@@H](O)C=C)C[C@@]1(CCCc3cc(Cl)ccc31)CO2, AcOH, 0.915 mM, 36.0 h): 55%
3 | COCCO[C@H]1/C=C/[C@H](C)[C@H](C)[C@@H](C)S(=O)(=O)NC(=O)c2ccc3c(c2)N(C[C@@H]2CC[C@H]21)C[C@@]1(CCCc2cc(Cl)ccc21)CO3 [Example 1048, (1S,3′R,6′R,7′S,8′E,10′S,11′S,12′R)-6-chloro-7′-(2-methoxyethoxy)-10′,11′,12′-trimethyl-3,4-dihydro-2H,15′H-spiro[naphthalene-1,22′-[20]oxa[13]thia[1,14]diazatetracyclo[14.7.2.0^3,6.0^19,24]pentacosa [8,16,18,24]tetraen]-15′-one 13′,13′-dioxide] | 0.299 nM | 90.8 nM | 
4 | C[C@@H]1[C@@H](C)S(=O)(=O)NC(=O)c2ccc3c(c2)N(C[C@@H]2CC[C@H]2[C@@H](OCCN2CCOCC2)/C=C/[C@@H]1C)C[C@@]1(CCCc2cc(Cl)ccc21)CO3 [Example 1049, (1S,3′R,6′R,7′S,8′E,10′S,11′S,12′R)-6-chloro-10′,11′,12′-trimethyl-7′-(2-(4-morpholinyl)ethoxy)-3,4-dihydro-2H,15′H-spiro[naphthalene-1,22′-[20]oxa[13]thia[1,14]diazatetracyclo[14.7.2.0^3,6.0^19,24]pentacosa [8,16,18,24]tetraen]-15′-one 13′,13′-dioxide] | 0.264 nM | 126 nM | 
5 | CCOC(=O)CO[C@H]1/C=C/[C@H](C)[C@H](C)[C@@H](C)S(=O)(=O)NC(=O)c2ccc3c(c2)N(C[C@@H]2CC[C@H]21)C[C@@]1(CCCc2cc(Cl)ccc21)CO3 [Example 1050, ethyl (((1S,3′R,6′R,7′S,8′E,10′S,11′S,12′R)-6-chloro-10′,11′,12′-trimethyl-13′,13′-dioxido-15′-oxo-3,4-dihydro-2H-spiro[naphthalene-1,22′-[20]oxa[13]thia[1,14]diazatetracyclo[14.7.2.0^3,6.0^19,24]pentacosa [8,16,18,24]tetraen]-7′-yl)oxy)acetate] | 0.589 nM | 288 nM | 
6 | C[C@@H]1[C@@H](C)S(=O)(=O)NC(=O)c2ccc3c(c2)N(C[C@@H]2CC[C@H]2[C@@H](OCC(=O)O)/C=C/[C@@H]1C)C[C@@]1(CCCc2cc(Cl)ccc21)CO3 [Example 1051, (((1S,3′R,6′R,7′S,8′E,10′S,11′S,12′R)-6-chloro-10′,11′,12′-trimethyl-13′,13′-dioxido-15′-oxo-3,4-dihydro-2H-spiro[naphthalene-1,22′-[20]oxa[13]thia[1,14]diazatetracyclo[14.7.2.0^3,6.0^19,24]pentacosa [8,16,18,24]tetraen]-7′-yl)oxy)acetic Acid] | 0.0197 nM | 1900 nM | 
7 | C[C@@H]1[C@@H](C)S(=O)(=O)NC(=O)c2ccc3c(c2)N(C[C@@H]2CC[C@H]2[C@@H](OCC(=O)N(C)C)/C=C/[C@@H]1C)C[C@@]1(CCCc2cc(Cl)ccc21)CO3 [Example 1052, 2-(((1S,3′R,6′R,7′S,8′E,10′S,11′S,12′R)-6-chloro-10′,11′,12′-trimethyl-13′,13′-dioxido-15′-oxo-3,4-dihydro-2H-spiro[naphthalene-1,22′-[20]oxa[13]thia[1,14]diazatetracyclo[14.7.2.0^3,6.0^19,24]pentacosa [8,16,18,24]tetraen]-7′-yl)oxy)-N,N-dimethylacetamide] | 0.11 nM | 95.7 nM | 
8 | CO[C@H]1/C=C/[C@@H](C)[C@H](C)[C@@H](C)S(=O)(=O)NC(=O)c2ccc3c(c2)N(C[C@@H]2CC[C@H]21)C[C@@]1(CCCc2cc(Cl)ccc21)CO3 [Example 1053, (1S,3′R,6′R,7′S,8′E,10′R,11′S,12′R)-6-chloro-7′-methoxy-10′,11′,12′-trimethyl-3,4-dihydro-2H,15′H-spiro[naphthalene-1,22′-[20]oxa[13]thia[1,14]diazatetracyclo[14.7.2.0^3,6.0^19,24]pentacosa [8,16,18,24]tetraen]-15′-one 13′,13′-dioxide] | 1.19 nM | 1480 nM | 
9 | CC(=O)O[C@@H]1/C=C/C[C@H](C)[C@@H](C)S(=O)(=O)NC(=O)c2ccc3c(c2)N(C[C@@H]2CC[C@H]21)C[C@@]1(CCCc2cc(Cl)ccc21)CO3 [Example 1070, (1S,3′R,6′R,7′R,8′E,11′S,12′R)-6-chloro-11′,12′-dimethyl-13′,13′-dioxido-15′-oxo-3,4-dihydro-2H-spiro[naphthalene-1,22′-[20]oxa[13]thia[1,14]diazatetracyclo[14.7.2.0^3,6.0^19,24]pentacosa [8,16,18,24]tetraen]-7′-yl acetate] | 1.07 nM | 1230 nM | 
10 | C[C@@H]1[C@@H](C)C[C@H](CC(=O)N(C)C)/C=C/[C@@H]2CC[C@H]2CN2C[C@@]3(CCCc4cc(Cl)ccc43)COc3ccc(cc32)C(=O)NS1(=O)=O [Example 1072, 2-((1S,3′R,6′S,7′E,9′R,11′S,12′R)-6-chloro-11′,12′-dimethyl-13′,13′-dioxido-15′-oxo-3,4-dihydro-2H-spiro[naphthalene-1,22′-[20]oxa[13]thia[1,14]diazatetracyclo[14.7.2.0^3,6.0^19,24]pentacosa [7,16,18,24]tetraen]-9′-yl)-N,N-dimethylacetamide] | 1.36 nM | 1510 nM | 
11 | CNC(=O)C[C@@H]1/C=C/[C@@H]2CC[C@H]2CN2C[C@@]3(CCCc4cc(Cl)ccc43)COc3ccc(cc32)C(=O)NS(=O)(=O)[C@H](C)[C@@H](C)C1 [Example 1073, 2-((1S,3′R,6′S,7′E,9′R,11′S,12′R)-6-chloro-11′,12′-dimethyl-13′,13′-dioxido-15′-oxo-3,4-dihydro-2H-spiro[naphthalene-1,22′-[20]oxa[13]thia[1,14]diazatetracyclo[14.7.2.0^3,6.0^19,24]pentacosa [7,16,18,24]tetraen]-9′-yl)-N-methylacetamide] | 0.617 nM | 1120 nM | 
12 | C[C@@H]1[C@@H](C)C[C@H](CC(=O)N2CC(O)C2)/C=C/[C@@H]2CC[C@H]2CN2C[C@@]3(CCCc4cc(Cl)ccc43)COc3ccc(cc32)C(=O)NS1(=O)=O [Example 1074, (1S,3′R,6′S,7′E,9′R,11′S,12′R)-6-chloro-9′-(2-(3-hydroxy-1-azetidinyl)-2-oxoethyl)-11′,12′-dimethyl-3,4-dihydro-2H,15′H-spiro[naphthalene-1,22′-[20]oxa[13]thia[1,14]diazatetracyclo[14.7.2.0^3,6.0^19,24]pentacosa [7,16,18,24]tetraen]-15′-one 13′,13′-dioxide] | 0.988 nM | 3850 nM | 
13 | C[C@@H]1[C@@H](C)C[C@H](CC#N)/C=C/[C@@H]2CC[C@H]2CN2C[C@@]3(CCCc4cc(Cl)ccc43)COc3ccc(cc32)C(=O)NS1(=O)=O [Example 1075, ((1S,3′R,6′S,7′E,9′R,11′S,12′R)-6-chloro-11′,12′-dimethyl-13′,13′-dioxido-15′-oxo-3,4-dihydro-2H-spiro[naphthalene-1,22′-[20]oxa[13]thia[1,14]diazatetracyclo[14.7.2.0^3,6.0^19,24]pentacosa [7,16,18,24]tetraen]-9′-yl)acetonitrile] | 6.15 nM | 2150 nM | 
14 | O=C1NS(=O)(=O)C[C@@H](CO)C/C=C/[C@H](O)[C@@H]2CC[C@H]2CN2C[C@@]3(CCCc4cc(Cl)ccc43)COc3ccc1cc32 [Example 1086, (1S,3′R,6′R,7′S,8′E,11′R)-6-chloro-7′-hydroxy-11′-(hydroxymethyl)-3,4-dihydro-2H,15′H-spiro [naphthalene-1,22′-[20]oxa[13]thia[1,14]diazatetracyclo[14.7.2.0^3,6.0^19,24]pentacosa [8,16,18,24]tetraen]-15′-one 13′,13′-dioxide] | 0.421 nM | 8650 nM | 
15 | COC[C@H]1C/C=C/[C@H](O)[C@@H]2CC[C@H]2CN2C[C@@]3(CCCc4cc(Cl)ccc43)COc3ccc(cc32)C(=O)NS(=O)(=O)C1 [Example 1087, (1S,3′R,6′R,7′S,8′E,11′R)-6-chloro-7′-hydroxy-11′-(methoxymethyl)-3,4-dihydro-2H,15′H-spiro [naphthalene-1,22′-[20]oxa[13]thia[1,14]diazatetracyclo[14.7.2.0^3,6.0^19,24]pentacosa [8,16,18,24]tetraen]-15′-one 13′,13′-dioxide] | 0.493 nM | 692 nM | 
16 | (1S,3′R,6′R,7′S,11′S,13′R)-6-chloro-13′-methyl-3,4-dihydro-2H,17′H-spiro[naphthalene-1,24′-[8,12,22]trioxa[15]thia[1,16]diazapentacyclo[16.7.2.1^7,11.0^36.0^21,26]octacosa[18,20,26]trien]-17′-one 15′,15′-dioxide [Example 920] |  |  | IC50 ([2]; cell free Mcl-1:Bim TR-FRET, recombinant human Mcl-1 (171-327)): 1.86 nM; IC50 ([3]; 16 h): 4350 nM
17 | (1S,3′R,6′R,9′R)-6-chloro-9′-methyl-3,4-dihydro-2H,15′H-spiro[naphthalene-1,22′-[20]oxa[13]thia[1,14]diazatetracyclo[14.7.2.0^3,6.0^19,24]pentacosa [16,18,24]trien]-15′-one 13′,13′-dioxide and (1S,3′R,6′R,9′S)-6-chloro-9′-methyl-3,4-dihydro-2H,15′H-spiro[naphthalene-[20]oxa[13]thia[1,14]diazatetracyclo[14.7.2.0^3,6.0^19,24]pentacosa [16,18,24]trien]-15′-one 13′,13′-dioxide [Example 276] | 13.2 nM |  | IC50 ([3]; 16 h): 6410 nM
